Data published in patent publication US7968554B2, “Pyrazolo[3,4-d]pyrimidine derivatives” (Hoffman-La Roche Inc., priority 2007, dated 2011).

molecular target: T1, c-Raf (Homo sapiens, UniProt P04049); assay: c-Raf HTRF assay with 6H-MEK as substrate (dose response); assay type: biochemical; settings: kinase enzyme inhibition, 6H-MEK substrate, read-out: cRaf IC50
T1 construct: made in house; host or cells: baculovirus, High-5 (Hi5) insect cells, co-infected with FLAG-vSrc virus
Protocol: Kinase Enzyme Inhibition Assay (IC50)
c-Raf HTRF Assay With 6H-MEK as Substrate (Dose Response)
The assay utilizes 6H-MEK as the substrate. Upon c-Raf phosphorylation, phosphorylated 6H-MEK is detected with rabbit anti-phospho-MEK1/2, Eu-labeled anti-rabbit, and APC-labeled anti-6H antibodies.
Reagents and Instruments:
• Enzyme: cloned human c-Raf with EE-tag; phosphorylated (co-expressed with v-src-FLAG in baculovirus Hi5 cells), 0.2 mg/mL (2.74 μM assuming a molecular weight of 73 kD) stored at −15° C. • Substrate: WT full-length 6H-MEK, 4.94 mg/mL (154.4 μM assuming a MW of 32 kD) stored at −15° C. • Antibodies: Rabbit (α-P-(Ser 217/221)-MEK-1/2 Ab (from Cell Signaling, Cat. #9121B, Lot 14); Eu-(α-rabbit IgG (from Wallac, Cat. #AD0083, Lot 318663, 710 ug/mL, 4.4 μM); (α-6H-SureLight-APC (from Martek, Cat. #AD0059H, Lot E012AB01, 3.03 μM). • Reader: Envision from PerkinElmer, HTRF reading mode with 412 mirror • Assay Plate: Matrix all-black polypropylene plates (Cat. #4344) • Others: Weidman 384 polypropylene plates (REMP) for compound plate. Assay Procedure: • (1) Prepare Kinase Assay Buffer (KAB): 50 mM HEPES (HyClone) pH7, 10 mM MgCl2, 1 mM DTT, 0.1 mM […], and 0.3 mg/ml BSA. • (2) Prepare 6H-MEK (150 nM) in KAB. Add 12 μL/well to the assay plate. • (3) Prepare ATP (66 μM) in KAB. • (4) Dilute compounds to 2.4 mM and any positive controls to 480 μM in DMSO. Perform 10-point 3× dilution in DMSO. Withdraw 2.5 μL/well of DMSO solution and add to 27.5 μl/well ATP solution in (3). • (5) Mix, then add 6 μl/well of solution in (4) to the assay plate for a DMSO concentration of 2.1% during MEK phosphorylation. • (6) Prepare c-Raf (12 nM) in KAB. • (7) Add 6 μl/well of KAB in columns 1-2 and 6 μL/well of c-Raf in columns 3-24. • (8) Incubate at 37° C. for 30 min. • (9) Prepare rabbit (α-P-(Ser 217/221 )-MEK-1/2 Ab (1:240 from stock) in AB1: 50 mM HEPES pH7, 0.2 mg/mL BSA, and 43 mM EDTA. • (10) To stop reaction, add 6 μL/well of solution from (9) to the assay plate and incubate at 37° C. for 30 min. • (11) Prepare Eu-(α-rabbit IgG (9 nM) and (α-6H-SureLight-APC (120 nM) in AB2: 50 mM HEPES pH7 and 0.2 mg/mL BSA. • (12) Add 6 μl/well of solution from (11) to the assay plate. • (13) For determining the spectrum cross talk factor, prepare 2 samples following steps (1) to (10). For the blank sample, add 6 μl/well of AB2. For the cross talk factor sample, add 6 μL/well of Eu-anti rabbit IgG (9 nM). • (14) Incubate at room temperature for 1.5 hours. • (15) Read HTRF signals at 615 nm and 665 nm on the Envision. Normalize HTRF signals after spectrum cross-talk correction. Expression and Purification of c-Raf
N terminal EE-tagged c-Raf was expressed in High-5 cells. A five liter culture was co-transfected with virus for EE-c-Raf and FLAG-vSrc at a ratio of 1:2 and harvested after 48 hours. The cell pellet was lysed in TBS containing 5 mM EDTA, 50 mM KF, 20 mM Na pyrophosphate, 20 mM β-glycerolphosphate, 0.5 mM Na VO3, 1% NP-40 (w/v) and Complete Protease Tablets. The lysate was centrifuged at 20,000×g for 1 hour. The supernatant was incubated with 8 mL of anti-EE tag-Protein G Sepharose for 2 hours at 4° C. The resin was then washed with 30 volumes of the above buffer. The c-Raf protein was eluted by incubation with the above buffer containing 100 mg/mL of EE peptide for 1 hour at 4° C. The protein was concentrated using an Amicon Stir Cell with an YM10 membrane. The concentrated protein was dialyzed against TBS containing 1 mM DTT and 30% Glycerol. Protein concentration was determined by the BioRad DC method.
E. coli cells containing the plasmid for the expression of 6H-MEK1 (62-393) were grown in Rich Media and induced with 1 mM IPTG for 24 hours at 22° C. The cell pellet was resuspended in 50 mM potassium phosphate buffer, pH 8.0, 300 mM NaCl, 5 mM MgCl2, 10 mM CHAPS, 2 mM TCEP, and Complete Protease Inhibitor Tablets. Cells were disrupted by sonication. The lysate was cleared by centrifugation at 13,000×g for 45 minutes. […]

T1 sequence (P04049 whole entry): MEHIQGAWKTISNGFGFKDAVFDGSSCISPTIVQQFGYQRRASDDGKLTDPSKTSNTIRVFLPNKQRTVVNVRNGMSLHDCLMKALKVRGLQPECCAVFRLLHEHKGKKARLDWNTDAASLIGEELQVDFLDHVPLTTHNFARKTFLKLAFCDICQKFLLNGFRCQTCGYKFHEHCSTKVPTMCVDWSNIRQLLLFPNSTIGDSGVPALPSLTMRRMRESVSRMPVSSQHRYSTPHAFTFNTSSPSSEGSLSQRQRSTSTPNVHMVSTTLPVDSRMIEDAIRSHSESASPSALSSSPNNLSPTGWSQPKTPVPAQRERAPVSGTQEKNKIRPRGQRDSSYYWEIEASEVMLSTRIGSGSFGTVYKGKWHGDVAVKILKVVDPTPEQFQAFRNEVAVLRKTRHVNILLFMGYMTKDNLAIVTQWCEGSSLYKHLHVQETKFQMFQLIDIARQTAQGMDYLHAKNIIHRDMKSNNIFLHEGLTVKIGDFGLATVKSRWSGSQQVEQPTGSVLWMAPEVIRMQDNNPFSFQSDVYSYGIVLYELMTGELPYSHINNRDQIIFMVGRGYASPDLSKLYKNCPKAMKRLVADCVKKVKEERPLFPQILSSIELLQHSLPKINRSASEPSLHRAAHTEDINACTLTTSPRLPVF

IC50, < 10 µM:
Cc1noc(-c2ccc(C)c(OCc3nn(C)c4ncnc(N)c34)c2)n1 [Example 13, 4-Amino-1-1-methyl-3-[2-methyl-5-(3-methyl-[1,2,4]oxadiazol-5-yl)-phenoxymethyl]-1H-pyrazolo[3,4-d]pyrimidine]
Cc1ccc(NC(=O)c2cccc(Cl)c2)cc1OCc1nn(C)c2ncnc(N)c12 [Example 11, N-[3-(4-Amino-1-methyl-1H-pyrazolo[3,4-d]pyrimidin-3-ylmethoxy)-4-methyl-phenyl]-3-chloro-benzamide]
Cc1nnc(-c2ccc(C)c(OCc3nn(C)c4ncnc(N)c34)c2)o1 [Example 21, 1-Methyl-3-[2-methyl-5-(5-methyl-[1,3,4]oxadiazol-2-yl)-phenoxymethyl]-1H-pyrazolo[3,4-d]pyrimidin-4-ylamine]
Cc1ccc(OCc2ccc(Cl)cc2)cc1OCc1nn(C)c2ncnc(N)c12 [Example 19, 3-[5-(4-Chloro-benzyloxy)-2-methyl-phenoxymethyl]-1-methyl-1H-pyrazolo[3,4-d]pyrimidin-4-ylamine]
Cc1ccc(OCc2ccccc2)cc1OCc1nn(C)c2ncnc(N)c12 [Example 15, 3-(5-Benzyloxy-2-methyl-phenoxymethyl)-1-methyl-1H-pyrazolo[3,4-d]pyrimidin-4-ylamine]
Cc1ccc(C(=O)Nc2ccc(Cl)cc2)cc1OCc1nn(C)c2ncnc(N)c12 [Example 17, 3-(4-Amino-1-methyl-1H-pyrazolo[3,4-d]pyrimidin-3-ylmethoxy)-N-(4-chloro-phenyl)-4-methyl-benzamide]
Cc1ccc(NC(=O)c2ccc(NCCO)c(Cl)c2)cc1OCc1nn(C)c2ncnc(N)c12 [Example 9, N-[3-(4-Amino-1-methyl-1H-pyrazolo[3,4-d]pyrimidin-3-ylmethoxy)-4-methyl-phenyl]-3-chloro-4-(2-hydroxy-ethylamino)-benzamide]
Cn1nc(COc2cccc(OCc3ccccc3)c2)c2c(N)ncnc21 [Example 7, 3-(3-Benzyloxy-phenoxymethyl)-1-methyl-1H-pyrazolo[3,4-d]pyrimidin-4-ylamine]
